Experimental data taken from patent publication US20110172147A1, “NEUROPEPTIDE-2 RECEPTOR (Y-2R) AGONISTS” (priority 2009, published 2011).
pEC50: −log10 of the molar value.

Tests used:
hypothalamic slices = hypothalamic slices in vitro; cited from earlier work
Y1R = biological target: T1, Y1R (Homo sapiens, UniProt P25929); assay: CaFlux Assay (FLIPR), Y1R; format: cell-based
T1 sequence (P25929 1-384): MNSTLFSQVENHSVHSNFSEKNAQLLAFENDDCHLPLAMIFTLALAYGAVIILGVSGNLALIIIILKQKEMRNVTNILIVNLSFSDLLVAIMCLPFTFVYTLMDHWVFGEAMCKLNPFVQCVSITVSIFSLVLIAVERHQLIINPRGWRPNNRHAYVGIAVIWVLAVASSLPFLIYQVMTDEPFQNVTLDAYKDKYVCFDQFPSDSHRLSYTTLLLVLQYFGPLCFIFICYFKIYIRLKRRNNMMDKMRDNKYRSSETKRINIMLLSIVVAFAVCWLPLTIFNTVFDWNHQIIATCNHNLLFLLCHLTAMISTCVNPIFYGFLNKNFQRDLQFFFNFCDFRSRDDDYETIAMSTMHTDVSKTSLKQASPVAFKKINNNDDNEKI

Y4R = Y4R (Homo sapiens, UniProt P50391); assay: CaFlux Assay (FLIPR), Y4R; format: cell-based
Sequence of Y4R (P50391 whole entry): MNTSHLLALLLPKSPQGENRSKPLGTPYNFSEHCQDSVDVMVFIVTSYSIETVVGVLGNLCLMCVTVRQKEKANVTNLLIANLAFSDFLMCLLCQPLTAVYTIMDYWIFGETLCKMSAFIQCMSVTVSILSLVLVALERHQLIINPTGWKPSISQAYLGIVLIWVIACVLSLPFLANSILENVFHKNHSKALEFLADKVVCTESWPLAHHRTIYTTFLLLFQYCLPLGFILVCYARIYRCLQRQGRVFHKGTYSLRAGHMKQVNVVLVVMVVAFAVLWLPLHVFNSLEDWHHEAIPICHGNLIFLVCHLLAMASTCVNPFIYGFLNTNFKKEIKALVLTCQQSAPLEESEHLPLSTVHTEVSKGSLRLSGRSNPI

Y5R = biological target: T2, Y5R (Homo sapiens, UniProt Q15761); assay: CaFlux Assay (FLIPR), Y5R; format: cell-based
T2 sequence (Q15761 1-445): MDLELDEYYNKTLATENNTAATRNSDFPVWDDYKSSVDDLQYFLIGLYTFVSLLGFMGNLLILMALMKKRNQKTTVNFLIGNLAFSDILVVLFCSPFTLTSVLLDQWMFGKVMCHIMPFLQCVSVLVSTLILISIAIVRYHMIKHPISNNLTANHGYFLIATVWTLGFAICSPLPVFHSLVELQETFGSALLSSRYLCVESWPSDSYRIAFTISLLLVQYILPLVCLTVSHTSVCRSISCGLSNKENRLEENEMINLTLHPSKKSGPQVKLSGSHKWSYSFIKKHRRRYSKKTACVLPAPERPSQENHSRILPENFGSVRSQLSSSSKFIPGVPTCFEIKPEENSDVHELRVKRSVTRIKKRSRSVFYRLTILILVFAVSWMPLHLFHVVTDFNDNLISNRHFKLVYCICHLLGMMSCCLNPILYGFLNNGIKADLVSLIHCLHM

hNPY2R [1] = biological target: T3, hNPY2R (Homo sapiens, UniProt P49146); assay: cAMP Agonist Assay, HEK293/hNPY2R; format: cell-based; set-up: expressed in transfected cells; host or cells: HEK293/hNPY2R (G418 selection)
T3 sequence (P49146 1-381): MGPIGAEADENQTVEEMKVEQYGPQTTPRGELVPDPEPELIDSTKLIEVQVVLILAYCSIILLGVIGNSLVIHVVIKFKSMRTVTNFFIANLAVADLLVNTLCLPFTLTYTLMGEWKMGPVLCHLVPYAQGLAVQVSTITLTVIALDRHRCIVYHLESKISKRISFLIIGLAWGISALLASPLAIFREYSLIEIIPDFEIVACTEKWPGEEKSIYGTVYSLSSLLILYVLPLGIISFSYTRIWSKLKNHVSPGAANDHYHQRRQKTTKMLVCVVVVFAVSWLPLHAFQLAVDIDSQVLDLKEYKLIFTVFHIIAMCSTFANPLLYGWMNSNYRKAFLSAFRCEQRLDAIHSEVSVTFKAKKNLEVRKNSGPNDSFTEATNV
Outline: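 Intracellular cAMP quantified by luminescent competitive ELISA after a 30 min room-temperature treatment of overnight-plated HEK293/hNPY2R cells with compound in medium containing 5 μM forskolin, 0.5 mM IBMX and 1.1% DMSO; four replicates per concentration.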

hNPY2R [2] = biological target: T3, hNPY2R; assay: CaFlux Assay (FLIPR), Y2R; format: cell-based; set-up: expressed in transfected cells; host or cells: HEK-293 stably transfected with G protein chimera Gαqi9
Outline: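 Gαqi9-chimera HEK-293 stable lines; Calcium-3 dye load 1 h, 37 °C (HBSS, 20 mM HEPES, 5 mM probenecid); compound in HBSS/0.05% BSA/1% DMSO; FLIPR read every 1.5 s for 100 s; peak minus pre-addition baseline, % of max positive-control response.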

Structure (SMILES) | NPY release (hypothalamic slices) | pEC50 (Y1R) | pEC50 (Y4R) | pEC50 (Y5R) | pEC50 (hNPY2R [1]) | pEC50 (hNPY2R [2])
N=C(N)NCCC[C@H](NC(=O)CC1(CC(=O)N2CCN(C3c4ccccc4NC(=O)c4ccccc43)CC2)CCCC1)C(=O)NCCn1c(=O)n(-c2ccccc2)n(-c2ccccc2)c1=O (some centres unmarked) [BIIE0246] | increases NPY release |  |  |  |  | 
CCCCCCCCCCCCCCCCCCCC(=O)N[C@@H](CCC(=O)N[C@@H](CCC(=O)N[C@H](C(=O)N[C@@H](CCCCNC(=O)CCOCCOCCOCCOCCOCCOCCOCCOCCOCCOCCOCCOCCOCCOCCOCCOCCOCCOCCOCCOCCOCCOCCOCCOC)C(=O)N1CCN(c2ccc3ncn(CC(=O)N[C@@H](CCCNC(=N)N)C(=O)N[C@@H](Cc4c[nH]cn4)C(=O)N[C@@H](Cc4ccc(O)cc4)C(=O)N[C@@H](CC(C)C)C(=O)N[C@@H](CC(N)=O)C(=O)N[C@@H](Cc4c[nH]c5ccccc45)C(=O)N[C@H](C(=O)N[C@H](C(=O)N[C@@H](CCCNC(=N)N)C(=O)N[C@@H](CCC(N)=O)C(=O)N(C)[C@@H](CCCNC(=N)N)C(=O)N[C@@H](Cc4ccc(O)cc4)C(N)=O)[C@@H](C)O)C(C)C)c(=O)c3c2)CC1)[C@@H](C)CC)C(=O)O)C(=O)O [Example 60] |  | < 5.05 | < 5.05 | 5.59 | 9.54 | 9.74
CCCCCCCCCCCCCCCCCCCC(=O)N[C@@H](CCC(=O)N[C@@H](CCC(=O)N[C@H](C(=O)N[C@@H](CCCCNC(=O)CCOCCOCCOCCOCCOCCOCCOCCOCCOCCOCCOCCOCCOCCOCCOCCOCCOCCOCCOCCOCCOCCOCCOCCOC)C(=O)N1CCN(c2ccc3ncn(CC(=O)N[C@@H](CCCNC(N)=O)C(=O)N[C@@H](Cc4c[nH]cn4)C(=O)N[C@@H](Cc4ccc(O)cc4)C(=O)N[C@@H](CC(C)C)C(=O)N[C@@H](CC(N)=O)C(=O)N[C@@H](Cc4c[nH]c5ccccc45)C(=O)N[C@H](C(=O)N[C@H](C(=O)N[C@@H](CCCNC(=N)N)C(=O)N[C@@H](CCC(N)=O)C(=O)N(C)[C@@H](CCCNC(=N)N)C(=O)N[C@@H](Cc4ccc(O)cc4)C(N)=O)[C@@H](C)O)C(C)C)c(=O)c3c2)CC1)[C@@H](C)CC)C(=O)O)C(=O)O [Example 61] |  | < 5.22 | < 5.22 | < 5.22 | 9.55 | 9.61
